Results from US20180318383A1, “PEPTIDE HAVING NEURONAL LOSS PREVENTION AND REGENERATION EFFECTS, AND COMPOSITION CONTAINING SAME” (GEMVAX & KAEL CO., LTD., priority 2015, published 2018).
Where no end group is shown, it is not given here.

Experiments:
PI3K pathway = assay: NSC survival after PI3K inhibitor LY294002 pre-treatment; format: cell-based, rat; conditions: 10 μM LY294002 pre-treatment, then 20 μM Aβ25-35 and 10 μM PEP1 for 48 hours
Description: To identify the role of the PI3K/AKT signaling system in the PEP1 mechanism, NSCs were treated with a PI3K inhibitor LY294002 for 1 hour before treatment of 50 μM PEP1 and 20 μM Aβ25-30. NSCs were divided into four groups as follows: control group (Group 1), group treated with 20 μM Aβ25-35 for 48 hours (Group 2), group treated with 20 μM Aβ25-35, as well as 50 μM PEP1, for 48 hours (Group 3), and group treated with 10 μM LY294002 and 20 μM Aβ25-35, as well as 50 μM PEP1, for 48 hours (Group 4). To investigate a PEP1 effect on nerve protection via a PI3K pathway induced by Aβ25-35 toxicity, NSCs were divided into four groups: control group (Group 1), group treated with 20 μM Aβ25-35 for 48 hours (Group 2), group treated with 20 μM Aβ25-35 and 10 μM PEP1 for 48 hours (Group 3), and group treated with 10 μM LY294002 for […], and then treated with 20 μM Aβ25-35 10 μM PEP1 for 48 hours (Group 4).

[1] = Cell-free ROS production (DHBA level by HPLC); conditions: 20 μM Aβ25-35 and PEP1 0, 1, 10, 50 μM
Description: To investigate how Aβ25-30 and PEP1 influenced ROS, a DHBA level was measured and observed by a cell-free method. This method was carried out by observing the DHBA level in a tube containing 20 μM Aβ25-30 and each concentration of PEP1 (0, 1, 10 or 50 μM) through HPLC.

NSCs [2] = assay: NSC proliferation (BrdU and CFU assays); format: cell-based, rat; conditions: NSCs, Aβ25-35 alone 0-40 μM, 48 hours; BrdU and CFU
Description: NSCs were treated with different concentrations of PEP1 and 20 μM Aβ25-30 for 48 hours. Afterward, NSCs were cultured in bromodeoxyuridine (BrdU)-labeled media for 5 hours and observed using a kit. Cell division was evaluated by measuring absorbance at 370 nm and reference absorbance at 492 nm. All results were normalized based on a cell-free well.
A CFU assay was carried out by the following method. Briefly, 0.25×10^5 NSCs were plated in a 6-well plate, and treated with 20 μM Aβ25-30 and then with PEP1 at 1, 10 or 50 μM for 48 hours. The cells were washed with DPBS, and then the medium was exchanged with a fresh cell culture medium. Fourteen days later, the cells were washed again with DPBS, and stained with 0.5% crystal violet dissolved in methanol for 30 minutes at room temperature. Following staining, the plate was washed with DPBS and then dried. The number of colonies was observed using a stereoscopic microscope, and among these colonies, those smaller than 2 mm or faintly stained were removed.

NSCs [3] = assay: Cell viability of NSCs (CCK-8, MTT, LDH); format: cell-based, rat; conditions: NSCs, Aβ25-35 alone 0, 2.5, 5, 10, 20, 40 μM, 48 hours; CCK-8, MTT, LDH
Description: NSCs were isolated from the brain of a rat embryo, cultured and developed. The NSC culture was performed in the same manner as to be described below. Briefly describing, a rat embryo was obtained on day 13 of the embryonic period, and the brain was quickly removed and placed in a petri dish containing cold phosphate-buffered physiological saline (Hank's balanced salt solution; HBSS).
Single cells were isolated from the cerebral cortex, the lateral ganglion eminence, and the embryonic midbrain. These cells were put into a dish pre-treated with L-ornithine and fibronectin, containing calcium and magnesium-free phosphate-buffered physiological saline (PBS) at a density of 20,000 cells/cm^2. In addition, the cells were cultured in an N2 medium (DMEM F/12, […] insulin, 100 mg/L transferrin, 30 nM selenite, […], 20 nM progesterone, 0.2 mM ascorbic acid, […], 8.6 mM D(+) glucose, and […]). The culture was maintained in humidified and 5% CO2 conditions for 4 to 6 days at 37° C.
NSCs were divided into 6 samples, and each sample was treated with […] Aβ25-30 oligomers for 48 hours to identify a suitable concentration. […] Briefly, Aβ25-30 was dissolved in hexafluoroisopropanol to reach a concentration of 1 mM. In addition, the prepared solution was dispensed using a sterilized ultramicrocentrifuge tube. […]
To identify the PEP1 effect in NSCs, PEP1 was treated at various concentrations of 0, 1, 10, 50, 100, and 200 μM for 48 hours. […] The plate was gently washed with PBS several times, and cell viability was measured using a cell counting kit-8 (CCK-8), MTT and lactate dehydrogenase (LDH).
CCK-8 was used as a method for counting living cells by bonding 2-[2-methoxy-4-nitrophenyl]-3-[4-nitrophenyl]-5-[2,4-disulfophenyl]-2H-tetrazolium, monosodium salt (WST-8) with 1-methoxyphenazinium methylsulfate (PMS). […] Cell viability was evaluated by measuring absorbance at 450 nm. […] Cell viability was evaluated by measuring absorbance at 490 nm and reference absorbance at 690 nm. […]

Molecule | survival ability of NSCs degraded, Group 4 compared to Group 3 (PI3K pathway) | ROS production under a cell-free condition [1] | proliferation (NSCs [2]) | cell survival ability (NSCs [3])
O=c1cc(N2CCOCC2)oc2c(-c3ccccc3)cccc12 [LY294002] | approximately 16% |  |  | 
Aβ25-35: β-Amyloid 25-35 oligomers used to induce neurotoxicity in NSCs (GSNKGAIIGLM; also: used as oligomers; UniProt P05067 696-706, looked up, fragment) [reference compound] |  | did not exhibit a significant influence | significantly reduced in a concentration-dependent method | significantly reduced in a concentration-dependent method
